In US20230286973A1, “PROTEIN SECRETION INHIBITORS” (KEZAR LIFE SCIENCES, priority 2020, published 2023):
Read-outs that look alike come from different tables or passages of the source.

How the values were obtained:
[1] = tested on: HER3-ss+4aa/Gaussia Luciferase; test: Dox-Induced Her3-ss-Gluc Assay; format: cell-based; settings: 24 hr Dox induction, 293FRT/TO cells, read-out: 24 hr Dox Inducible Her3(ss + 4)Gluc 293FRT/TO: Mean IC50
In short: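 Flp-In 293 T-REx cells, stable HER3-ss+4aa/Gaussia luciferase insert, hygromycin/blasticidin selected; plated day before; compound in DMSO/media + doxycycline; 37° C., 5% CO2.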

[2] = tested on: PD1-ss+10aa/Gaussia Luciferase; test: Dox-Induced PD1-ss-Gluc Assay; format: cell-based; settings: 24 hr Dox induction, 293FRT/TO cells, read-out: 24 hr Dox Inducible PD1ssGluc 293FRT/TO: Mean IC50
In short: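 Gaussia luciferase fused downstream of the PD1 signal peptide plus 10 residues was expressed on doxycycline induction in stably transfected Flp-In 293 T-REx cells. Compounds were added with doxycycline and incubated at 37 °C, 5% CO2.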

[3] = tested on: IL-2-FL/Gaussia Luciferase; test: Dox Induced IL2-FL-Gluc Assay; format: cell-based; settings: for IC50: 24 hr Dox induction, 293FRT/TO cells, read-out: 24 hr Dox Inducible IL2FLGluc 293FRT/TO: Mean IC50; for 24 hr Dox Inducible IL2FLGluc 293FRT/TO: IL2/PD1: ratio of IL2FLGluc IC50 to PD1ssGluc IC50
In short: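 Stable Flp-In 293 T-REx line, Tet-regulated IL-2 (aa 1-153)–Gaussia luciferase fusion; hygromycin/blasticidin selected. Plated day -1; compound + doxycycline added next day; 37° C, 5% CO2.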

[4] = tested on: TNFα-FL/Gaussia Luciferase; test: Dox Induced TNFα-FL-Gluc Assay; format: cell-based; settings: for IC50: 24 hr Dox induction, 293FRT/TO cells, read-out: 24 hr Dox Inducible TNFaFLGluc 293FRT/TO: Mean IC50; for 24 hr Dox Inducible TNFaFLGluc 293FRT/TO: TNF/PD1: ratio of TNFaFLGluc IC50 to PD1ssGluc IC50
In short: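 Cell line: stable Flp-In 293 T-REx, TNFα-FL(1-233)-Gaussia luciferase fusion, T-REx-inducible. Plated day -1; compounds in DMSO/media + doxycycline, 37 °C, 5% CO2. Undefined stereocentres = mixture tested.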

[5] = tested on: multiple myeloma cell line U266B1; test: U266 Cell Viability Assay; format: cell-based, human; settings: Homo sapiens, U-266, 48 h, U266B1 cells, Celltiter-Glo
In short: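 Luminescent ATP read-out (CellTiter-Glo) after 48 h compound exposure at 37° C., 5% CO2; cells maintained in RPMI 1640/10% FBS/2 mM glutamine/pen-strep, compounds diluted in DMSO/media.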

[6] = Liver Microsome Stability Assay (human); settings: human liver microsomes, with NADPH, 1.0 uM compound
Experimental: (§1) Stability of a compound was assessed in the presence of liver microsomes from various sources—mouse, rat, monkey and human liver microsomes. 1.0 uM compound, 0.4% DMSO in 0.1 M Potassium Phosphate with 1.0 mg/mL liver microsomes, were incubated at 37° C. with or without 1 mM NADPH. The samples were quenched at 0, and 30 minutes.

[7] = Liver Microsome Stability Assay (rat); settings: rat liver microsomes, with NADPH, 1.0 uM compound
Experimental: as §1

[8] = Liver Microsome Stability Assay (monkey); settings: monkey liver microsomes, with NADPH, 1.0 uM compound
Experimental: as §1

[9] = Liver Microsome Stability Assay (mouse); settings: mouse liver microsomes, with NADPH, 1.0 uM compound
Experimental: as §1

[10] = tested on: multiple myeloma cell line NCI-H929; test: H929 Cell Viability Assay; format: cell-based, human; settings: Homo sapiens, NCI-H929, 48 h, NCI-H929 cells, Celltiter-Glo
In short: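 Cells in RPMI 1640/10% FBS; compound dilutions in DMSO/media; 48 h, 37° C, 5% CO2; CellTiter-Glo luciferase readout for viability.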

[11] = '<=>' given where both are I.A.

Row | IC50 ([1]; mean) | IC50 ([2]; mean) | IC50 ([3]; mean) | IC50 ([4]; mean) | EC50 [5] | Liver Microsome Stability (Multiple Species): Human - % Remaining after 30 min w/NADPH [6] | Liver Microsome Stability (Multiple Species): Rat - % Remaining after 30 min w/NADPH [7] | Liver Microsome Stability (Multiple Species): Monkey - % Remaining after 30 min w/NADPH [8] | Liver Microsome Stability (Multiple Species): Mouse - % Remaining after 30 min w/NADPH [9] | EC50 [10] | IC50 [1] | IC50 [2] | IC50 [3] | IC50 [4] | SMILES | 24 hr Dox Inducible IL2FLGluc 293FRT/TO: IL2/PD1 [3, 11] | 24 hr Dox Inducible TNFaFLGluc 293FRT/TO: TNF/PD1 [4, 11] | 24 hr Dox Inducible IL2FLGluc 293FRT/TO: IL2/PD1 [3] | 24 hr Dox Inducible TNFaFLGluc 293FRT/TO: TNF/PD1 [4]
1 | 2.83 µM | 1.72 µM | 5.38 µM | 16.8 µM | > 25 µM | 26.1% | 4.12% | 0.26% | 19.1% | 21.9 µM | – | – | – | – | O=C(Nc1nc([C@H]2CCCN2c2ccccc2)cs1)c1cccn1CCC1COC1 [Compound C99, (R)-1-(2-(oxetan-3-yl)ethyl)-N-(4-(1-phenylpyrrolidin-2-yl)thiazol-2-yl)-1H-pyrrole-2-carboxamide] | 3.1 | 9.72 | – | –
2 | – | – | – | – | 7.33 µM | 0.7% | 2.95% | 3.93% | 9.8% | 7.03 µM | 0.773 µM | 0.173 µM | 2.51 µM | 3.75 µM | CC(C)(C)c1nc(/C=C/c2csc(NC(=O)c3cccn3Cc3ccncc3)n2)co1 [Compound B36, (E)-N-(4-(2-(2-(tert-butyl)oxazol-4-yl)vinyl)thiazol-2-yl)-1-(pyridin-4-ylmethyl)-1H-pyrrole-2-carboxamide] | – | – | 14 | 21.7
3 | – | – | – | – | > 25 µM | 1.34% | 18.6% | 0.16% | 2.72% | 0.438 µM | 0.031 µM | 0.015 µM | 0.0418 µM | 0.487 µM | CC(=O)N1CC(CCc2ccc(N3CCC[C@@H]3c3csc(NC(=O)c4cccn4Cc4ccnc(F)c4)n3)cc2)C1 [Compound A176] | – | – | 2.8 | 32.4
4 | – | – | – | – | > 25 µM | 0.45% | 0.52% | 0.02% | 0.09% | 2.71 µM | 0.0605 µM | 0.035 µM | 0.0537 µM | 0.569 µM | O=C(Nc1nc(-c2ccccc2-c2ccccn2)cs1)c1cccn1Cc1ccnc(F)c1 [Compound A168, 1-((2-fluoropyridin-4-yl)methyl)-N-(4-(2-(pyridin-2-yl)phenyl)thiazol-2-yl)-1H-pyrrole-2-carboxamide] | – | – | 1.5 | 16.3
5 | – | – | – | – | > 25 µM | 2.95% | 3.12% | 0.35% | 1.43% | 0.472 µM | 0.0156 µM | 0.0163 µM | 0.0262 µM | 0.12 µM | CC(=O)N1CCC(Oc2c(F)cc(N3CCC[C@@H]3c3csc(NC(=O)c4cccn4Cc4ccnc(F)c4)n3)cc2F)CC1 [Compound A106, (R)-N-(4-(1-(4-((1-acetylpiperidin-4-yl)oxy)-3,5-difluorophenyl)pyrrolidin-2-yl)thiazol-2-yl)-1-((2-fluoropyridin-4-yl)methyl)-1H-pyrrole-2-carboxamide] | – | – | 1.6 | 7.32
6 | – | – | – | – | > 25 µM | 25.1% | 37.2% | 6.25% | 25.2% | 2.57 µM | 0.167 µM | 0.125 µM | 0.172 µM | 1.6 µM | O=C(Nc1nc([C@H]2CCCN2c2ccc(OC3CCS(=O)(=O)CC3)cc2)cs1)c1cccn1Cc1ccnc(F)c1 [Compound A138, (R)-N-(4-(1-(4-((1,1-dioxidotetrahydro-2H-thiopyran-4-yl)oxy)phenyl)pyrrolidin-2-yl)thiazol-2-yl)-1-((2-fluoropyridin-4-yl)methyl)-1H-pyrrole-2-carboxamide] | – | – | 1.4 | 12.8
7 | – | – | – | – | > 25 µM | 22.9% | 2.44% | 13.2% | 0.84% | 1.47 µM | 0.0497 µM | 0.0422 µM | 0.0522 µM | 0.407 µM | O=C(Nc1nc([C@H]2CCCN2c2ccc(OC3CSC3)cc2)cs1)c1cccn1Cc1ccnc(F)c1 [Compound A157, (R)-1-((2-fluoropyridin-4-yl)methyl)-N-(4-(1-(4-(thietan-3-yloxy)phenyl)pyrrolidin-2-yl)thiazol-2-yl)-1H-pyrrole-2-carboxamide] | – | – | 1.2 | 9.64
8 | 0.097 µM | 0.064 µM | 0.0952 µM | 0.704 µM | > 25 µM | 0.02% | 0.23% | 0.32% | 0.72% | 2.97 µM | – | – | – | – | Cc1ccnc(N2CCC[C@@H]2c2csc(NC(=O)c3cccn3Cc3ccncc3)n2)c1 [Compound E63, (R)-N-(4-(1-(4-methylpyridin-2-yl)pyrrolidin-2-yl)thiazol-2-yl)-1-(pyridin-4-ylmethyl)-1H-pyrrole-2-carboxamide] | 1.5 | 11 | – | –
9 | 0.648 µM | 0.312 µM | 2.6 µM | 8.14 µM | 7.92 µM | 0.19% | 0.26% | 3.44% | 0.06% | 19.6 µM | – | – | – | – | COc1ccc(O[C@H]2CC[C@H](c3csc(NC(=O)c4cccn4Cc4ccncc4)n3)CC2)nc1 [Compound E34, N-(4-((1r,4r)-4-((5-methoxypyridin-2-yl)oxy)cyclohexyl)thiazol-2-yl)-1-(pyridin-4-ylmethyl)-1H-pyrrole-2-carboxamide] | 8.3 | 26.1 | – | –
